Assay results from patent US20180071317A1, “USE OF AGENTS THAT ALTER THE PERITUMORAL ENVIRONMENT FOR THE TREATMENT OF CANCER” (SERVICIO ANDALUZ DE SALUD, priority 2011, published 2018).

Tests used:
[1] = system: fibroblasts (PHF) co-cultured with tumor cells of lung carcinoma (A-427); experiment: Marker expression (IHC) in PHF co-cultured with A-427 tumor cells; type: cell-based, human; conditions: co-culture with A-427 lung carcinoma; SP 1 μM + antagonist 1 μM; 48 h;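 further: cultures grown in human blood plasma from a healthy donor, value is the percentage of fibroblasts positive for each marker, six replicates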
Procedure: (§1) All cultures were maintained 48 hours, following which the same cells were included in paraffin blocks for subsequent analysis of the expression of different markers by immunohistochemistry (see Example 1). […] All experiments were carried out sixfold. Analyzed markers in fibroblast cells (stromal cells) were: TGF-α, TGF-β1, TGF-β2, TGF-β3, SPARC, MMP-3, MMP-7, MMP-9, MMP-11, MMP-13 and MMP-14.

[2] = system: fibroblasts (PHF) co-cultured with tumor cells, ovarian carcinoma (EFO-27); experiment: Marker expression (IHC) in PHF co-cultured with EFO-27 tumor cells; type: cell-based, human; conditions: co-culture with EFO-27; SP 1 μM + antagonist 1 μM; 48 h;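 further: values are the percentage of PHF fibroblasts positive for each marker, cultured in fresh plasma from a healthy human donor, each experiment run in six replicates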
Procedure: as §1

[3] = system: fibroblasts of tumors produced by lung carcinoma non small cell human (HCC-44) cells; experiment: Marker expression (IHC) in fibroblasts of tumor or peritumoral area, mouse model, HCC-44; type: in vivo; conditions: HCC-44 tumors in mice, 30 mg/kg/day oral, 7 days
Procedure: The expression on fibroblast cells obtained in the animal model was analyzed by immunohistochemistry, of the above markers: TGF-α, TGF-β1, TGF-β2, TGF-β3, MMP-7, MMP-1 1, MMP-14MP-14. […] This process was realized in mice treated with non-peptide antagonists of NK1 receptor and in untreated animals (control).

[4] = system: fibroblasts (PHF) co-cultured with tumor cells of human Burkitt lymphoma (CA-46); experiment: Marker expression (IHC) in PHF co-cultured with CA-46 tumor cells; type: cell-based; conditions: PHF co-cultured with CA-46 + SP + NK1 antagonist;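 further: percentage of PHF fibroblasts positive for each marker, cultures grown in fresh human plasma from a healthy donor, six replicates, compared with fibroblasts cultured alone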
Procedure: All cultures were maintained 48 hours, following which the same cells were included in paraffin blocks for subsequent analysis of the expression of different markers by immunohistochemistry (see Example 1). The primary antibodies used to perform immunohistochemical assays and their concentration are detailed in Example 2. All experiments were carried out sixfold. Analyzed markers in fibroblast cells (stromal cells) were: TGF-α, TGF-β1, TGF-β2, TGF-β3, SPARC, MMP-3, MMP-7, MMP-9, MMP-11, MMP-13 and MMP-14.

[5] = system: fibroblasts of tumors produced by human rhabdomyosarcoma tumor line (A-204); experiment: Marker expression (IHC) in fibroblasts of tumor or peritumoral area, mouse model, A-204; type: in vivo; conditions: A-204 tumors in mice, 30 mg/kg/day oral, 7 days
Procedure: In vitro tests conducted in Example 5 are now carried out in an experimental model in mice in vivo. […] Subsequently, the expression in fibroblasts tumoral and peritumoral area of molecular markers associated with progression and maintenance of tumors: TGF-α, TGF-β1, TGF-β2, TGF-β3, MMP-7, MMP-11, MMP-14 were analyzed by immunohistochemistry.
Were injected with 2×10^7 cells tumors (corresponding, in each case to each of the tumor types as specified in Table 9) in 200 of PBS subcutaneously μl. […] Mice were randomized into two groups when the tumors reached a volume of 75 mm^3 One group was treated with non-peptide receptor antagonists NK1 and the other with placebo 200μ1. […] Tumors and samples of non-neoplastic stromal areas remote from the tumor were halved, formalin fixed (4%) and then were included in paraffin blocks for analysis by immunohistochemistry.
The expression on fibroblast cells obtained in the animal model was analyzed by immunohistochemistry, of the above markers: TGF-α, TGF-β1, TGF-β2, TGF-β3, MMP-7, MMP-1 1, MMP-14MP-14. Tables 32 to 35 depict the type of label used and the average percentage of fibroblasts present in non-tumor areas, tumor and peritumoral (±SD) which were expressing the marker shown in each of the tumor types developed from of the different cell lines used. This process was realized in mice treated with non-peptide antagonists of NK1 receptor and in untreated animals (control).

[6] = system: fibroblasts (PHF) co-cultured with human fibrosarcoma tumor cells (HT-1080); experiment: Marker expression (IHC) in PHF co-cultured with HT-1080 tumor cells; type: cell-based; conditions: co-culture with HT-1080; SP 1 μM + antagonist 1 μM; 48 h;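 further: cultures grown in fresh human plasma from a healthy donor, six replicates, value is percent of fibroblasts positive for the marker, compared with fibroblasts cultured without tumor cells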
Procedure: as §1

CC(=O)N1CCN([C@H]2CCN(C(=O)N(C)[C@H](C)c3cc(C(F)(F)F)cc(C(F)(F)F)c3)[C@@H](c3ccc(F)cc3C)C2)CC1 [Casopitant]
0%: PHF cells expressing MMP-3 [1] | PHF cells expressing MMP-7 [1] | PHF cells expressing MMP-9 [1] | PHF cells expressing MMP-11 [1] | PHF cells expressing MMP-13 [1] | PHF cells expressing MMP-14 [1] | PHF cells expressing SPARC [1] | PHF cells expressing TGF-α [1] | PHF cells expressing TGF-β1 [1] | PHF cells expressing TGF-β2 [1] | PHF cells expressing TGF-β3 [1] | PHF cells expressing MMP-3 [2] | PHF cells expressing MMP-7 [2] | PHF cells expressing MMP-9 [2] | PHF cells expressing MMP-11 [2] | PHF cells expressing MMP-13 [2] | PHF cells expressing MMP-14 [2] | PHF cells expressing SPARC [2] | PHF cells expressing TGF-α [2] | PHF cells expressing TGF-β1 [2] | PHF cells expressing TGF-β2 [2] | PHF cells expressing TGF-β3 [2] | fibroblasts expressing MMP-7 [3] | fibroblasts expressing MMP-11 [3] | fibroblasts expressing MMP-14 [3] | fibroblasts expressing TGF-α [3] | fibroblasts expressing TGF-β 1 [3] | fibroblasts expressing TGF-β 2 [3] | fibroblasts expressing TGF-β 3 [3] | cells expressing MMP-3 [4] | cells expressing MMP-7 [4] | cells expressing MMP-9 [4] | cells expressing MMP-11 [4] | cells expressing MMP-13 [4] | cells expressing MMP-14 [4] | cells expressing SPARC [4] | cells expressing TGF-α [4] | cells expressing TGF-β1 [4] | cells expressing TGF-β2 [4] | cells expressing TGF-β3 [4] | fibroblasts expressing MMP-7 [5] | fibroblasts expressing MMP-11 [5] | fibroblasts expressing MMP-14 [5] | fibroblasts expressing TGF-α [5] | fibroblasts expressing TGF-β 1 [5] | fibroblasts expressing TGF-β 2 [5] | fibroblasts expressing TGF-β 3 [5] | PHF cells expressing MMP-3 [6] | PHF cells expressing MMP-7 [6] | PHF cells expressing MMP-9 [6] | PHF cells expressing MMP-11 [6] | PHF cells expressing MMP-13 [6] | PHF cells expressing MMP-14 [6] | PHF cells expressing SPARC [6] | PHF cells expressing TGF-α [6] | PHF cells expressing TGF-β1 [6] | PHF cells expressing TGF-β2 [6] | PHF cells expressing TGF-β3 [6]
